Measured values from US11191746B2, “Composition for inhibiting a growth of cancer stem cells comprising ciclesonide” (JEJU NATIONAL UNIVERSITY INDUSTRY-ACADEMIC COOPERATION …, priority 2016, dated 2021).

Legend:
IL-6 = assay: Human inflammatory cytokine assay (CBA), mammosphere culture solution; assay type: cell-based; settings: MDA-MB-231 mammosphere culture solution
Procedure: (§1) Mixed capture beads were vortexed and 50 μl of beads were added to assay tubes. 50 μl of human inflammatory cytokine standard and the cultured tumorsphere solution were added to the assay tubes, and then mixed with a cytokine PE solution. After 3 hours, the mixed solution was washed and analyzed by flow cytometry (Accuri C6, BD, San Diego, Calif., USA).

IL-8 [1] = assay: as above; assay type: cell-based; settings: MDA-MB-231 mammosphere culture solution
Procedure: as §1

MDA-MB-231 cells [2] = assay: Annexin V/PI staining, FACS; assay type: cell-based, human; settings: MDA-MB-231, 20 μM, 24 hours
Procedure: (§2) Cancer cells were cultured in a 6-well plate for 24 hours along with 20 μM of ciclesonide for the case of breast cancer and 10 μM or 20 μM of ciclesonide or DMSO for the case of lung cancer. In accordance with the manufacturer's protocol, apoptotic cells were double-stained with PI and FITC-Annexin V. The sample was analyzed by flow cytometry (Accuri C6, BD, San Diego, Calif., USA).

A549 cells [3] = assay: Annexin V/PI staining, FACS; assay type: cell-based, human; settings: A549, 10 μM and 20 μM, 24 hours
Procedure: as §2

MDA-MB-231 cells [4] = assay: Caspase-3/7 analysis (Caspase-Glo 3/7); assay type: cell-based, human; settings: MDA-MB-231, 40 μM and 80 μM, 24 hours
Procedure: (§3) Breast cancer cells and lung cancer cells were treated with ciclesonide at different concentrations for 24 hours. Caspase-3/7 activity was measured in accordance with the manufacturer's protocol for the Caspase-Glo 3/7 kit (Promega, Wisconsin, USA). 100 μl of a Caspase-Glo 3/7 reagent was added to a 96-well plate where cancer cells were cultured. The plate was covered with a plate sealer, followed by culture at room temperature for 1 hour, and measured using a plate-reading luminometer, GloMax® Explorer (Promega, Wisconsin, USA).

A549 cells [5] = assay: Caspase-3/7 analysis (Caspase-Glo 3/7); assay type: cell-based, human; settings: A549, 80 μM, 24 hours
Procedure: as §3

IL-8 [6] = assay: Human inflammatory cytokine assay (CBA), tumorspheres; assay type: cell-based; settings: A549 tumorspheres
Procedure: as §1

MCF-7 cells [7] = assay: CD44 and CD24 expression flow cytometric analysis; assay type: cell-based, human; settings: 24 hours, FACS
Procedure: The expression of CD44 and CD24 in MCF-7 cells was measured by FACS analysis. After isolating and harvesting cells using 1× trypsin/EDTA, one million cells were suspended, labeled with an FITC-conjugated anti-human CD44 antibody and a PE-conjugated anti-human CD24 antibody (BD Pharmingen, San Diego, Calif., USA), and incubated at 4° C. for 30 minutes. The cells were then washed three times with 1× PBS and analyzed by flow cytometry (Accuri C6, BD, San Diego, Calif., USA).

MDA-MB-231 cells [8] = assay: Breast cancer cell proliferation assay (MTS); assay type: cell-based, human; settings: MDA-MB-231, 48 hours after treatment
Procedure: (§4) The proliferation rates of MCF-7 cells and MDA-MB-231 cells were measured using a CellTiter 96® aqueous one solution cell proliferation kit. The MCF-7 cells or the MDA-MB-231 cells were cultured in a 96-well plate for 48 hours in the presence of ciclesonide at concentrations of 0 μM, 5 μM, 10 μM, 20 μM, 40 μM, and 80 μM. In accordance with the manufacturer's protocol, absorbance at 490 nm was determined using a 96-well plate reader (Dynex Revelation, Dynex Ltd., Billingshurst, UK). Respective data was determined by measuring three sets.

MCF-7 cells [9] = assay: Breast cancer cell proliferation assay (MTS); assay type: cell-based, human; settings: MCF-7, 48 hours after treatment
Procedure: as §4

[10] = test system: MCF-7 cell xenograft tumor; assay: Breast cancer xenograft model in NOD-SCID female nude mice; assay type: in vivo; settings: MCF-7 xenograft, 10 mg/kg
Procedure: A total of 12 NOD-SCID (BALB/cSIc (nu/nu)) female nude mice producing breast cancer cells were divided into two groups. […] The volume of tumors of each control mouse was measured every three days and calculated by the following equation: (width×length^2)/2. The other six nude mice received neoadjuvant chemotherapy using a test drug by infusion at an optimum dose of 10 mg/kg/day.

[11] = test system: MCF-7 cell-derived mammospheres; assay: Mammosphere formation; assay type: cell-based, human
Procedure: (§5) Human breast cancer cells, MCF-7, were obtained from American Type Culture Collection (ATCC; Manassas, Va., USA). MCF-7 cells and MDA-MB-231 cells were cultured in Dulbecco's Modified Essential Medium (DMEM; Hyclone, Logan, Utah, USA) containing 10% fetal bovine serum (FBS; Hyclone), 100 U/ml of penicillin, and 100 μg/ml of streptomycin (Hyclone). The MCF-7 cells were maintained in a humidified incubator containing 5% CO2 at 37° C. The cells were plated in 10 cm culture dishes at a density of 1×10^6 cells. To establish primary mammospheres, single cell-suspended MCF-7 cells were inoculated into ultra-low attachment 6-well plates containing 2 ml of complete MammoCult™ medium (StemCell Technologies, Vancouver, BC, Canada) at a density of 3.5 to 4×10^4 cells/well. The complete MammoCult™ medium was supplemented with 4 μg/ml of heparin, 0.48 μg/ml of hydrocortisone, 100 U/ml of penicillin, and 100 μg/ml of streptomycin. The cells were incubated in a 5% CO2 incubator at 37° C. for 7 days.
(§6) On day 10 of culture, cell culture plates were placed on a scanner (Epson Perfection V700 PHOTO, Epson Korea, Co, Seoul, Korea) to obtain 8-bit gray scale images of mammospheres. The images were acquired using a NICE software program downloaded from ftp://ftp.nist.gov/pub/physics/mlclarke/NICE at a low resolution of 300 dpi. For counting, a desired number of rows and columns (e.g., 2×3 for a 6-well plate) were selected to generate ROIs and after selecting the elliptical setting of the NICE program, the individual ROIs were defined by adjusting the movement and size of the provided ROI shapes. The background signals of the images were negated using a threshold algorithm, and the selected images were automatically counted. To analyze the formation of mammospheres, mammosphere formation efficiency (MFE, %) was determined by the following equation: MFE (%)=the number of mammospheres per well/a total number of plated cells per well×100.

[12] = test system: MDA-MB-231 cell-derived mammospheres; assay: Mammosphere formation; assay type: cell-based, human
Procedure: as §5, §6

With `CC(C)C(=O)OCC(=O)[C@@]12O[C@H](C3CCCCC3)O[C@@H]1C[C@H]1[C@@H]3CCC4=CC(=O)C=C[C@]4(C)[C@H]3[C@@H](O)C[C@@]12C` [ciclesonide] the “production level of secreted IL-6” value (IL-6) was “reduced”, the “production level of secreted IL-8” value (IL-8 [1]) was “reduced” and the “number of apoptotic breast cancer cells (annexin V+)” value (MDA-MB-231 cells [2]) was “increased”. The “number of apoptotic lung cancer cells (annexin V+)” value (A549 cells [3]) was “increased”, the “caspase 3/7 activity” value (MDA-MB-231 cells [4]) was “induced” and the “caspase 3/7 activity” value (A549 cells [5]) was “induced”. For the same molecule, the “production level of IL-8” value (IL-8 [6]) was “reduced”, the “subpopulation expressing CD44high/CD24low” value (MCF-7 cells [7]) was “reduced” and the “concentration at which growth of the cell line was inhibited in a concentration-dependent manner” value (MDA-MB-231 cells [8]) was no less than 10 µM. For the same molecule, the “concentration at which growth of the cell line was inhibited in a concentration-dependent manner” value (MCF-7 cells [9]) was no less than 10 µM, the “tumor volume vs control not treated” value [10] was “smaller” and the “tumor weight vs control not treated” value [10] was “smaller”. For the same molecule, the “growth of breast cancer stem cells” value ([11]; MCF-7 mammospheres, 10 μM) was “significantly inhibited”, the “size of the mammospheres” value ([11]; MCF-7 primary mammospheres) was “reduced” and the “reduction of the number of mammospheres” value ([11]; MCF-7 primary mammospheres, 5 μM or 10 μM, 7 days) was 90%. For the same molecule, the “growth of breast cancer stem cells” value ([12]; MDA-MB-231 mammospheres, 10 μM) was “significantly inhibited”, the “size of the mammospheres” value ([12]; MDA-MB-231 primary mammospheres) was “reduced” and the “reduction of the number of mammospheres” value ([12]; MDA-MB-231 primary mammospheres, 10 μM, 7 days) was 90%.
